Tests used:
mice = assay: toxicity by oral administration to mice; assay type: in vivo; conditions: oral administration of 100 mg/kg to mice
[1] = standing in aqueous solution, TLC detection of cyclopentenone formed; assay type: physicochemical; conditions: 4 mM in water, 16 hours at 4° C., 37° C. or 45° C.
Procedure: Hydroxycyclopentanone obtained in Example 2-(2) was dissolved in water to make the concentration 4 mM followed by allowing to stand for 16 hours at 4° C., 37° C. or 45° C. One μl of each of the samples was spotted on a silica gel 60 sheet F254 (manufactured by Merck), developed by the upper layer of a mixture of butyl acetate, acetic acid and water (3:2:2) and detected by means of an orcinol-sulfuric acid method. Thus, 400 mg of orcinol monohydrate (manufactured by Nacalai Tesque; 257-30) was dissolved in 22.8 ml of sulfuric acid, water was added to make 200 ml, the solution was sprayed on the thin layer after the development and heated at 120° C. for 1-2 minutes and the resulting spots were observed.

[2] = storage of aqueous cyclopentenone solution, conversion to hydroxycyclopentanone; assay type: physicochemical; conditions: water; aqueous solution stored at 4° C. for 30 days; read-out: cyclopentenone changed to hydroxycyclopentanone in aqueous solution

Compound	toxicity (mice)	conversion to cyclopentenone in aqueous solution (TLC spot) [1]	degraded at 720 h [2] [%]
O=C1CC(O)C(O)C1O (stereo not drawn) [hydroxycyclopentanone, 2,3,4-trihydroxycyclopentanone]	no toxicity was noted	a spot for cyclopentenone was noted in all of the samples and the higher the temperature for allowing to stand, the stronger the color of the spot for cyclopentenone	
O=C1C=CC(O)C1O (stereo not drawn) [cyclopentenone, 4,5-dihydroxy-2-cyclopenten-1-one]			~30
